The compounds below were run on DLD1 BRCA2 (−/−) cells (assay: 7-day cell viability assay (CellTiter-Glo), DLD1 BRCA2 (−/−)). Settings: 7-day CellTiter-Glo, n=2, read-out: Viability IC50 (uM) DLD1 BRCA2 null.
Format: cell-based, human
Method: Cell lines DLD1 WT and DLD1 BRCA2 (−/−) (Horizon Discovery Cat No. HD PAR-008 and HD-105-007) were plated in 384-well culture plates at seeding densities of 100cells/50 ul/well and 200 cells/50 uL/well respectively. The seeding densities are pre-determined from the growth curve kinetics performed to ensure log linear phase of cell growth for these 2 cell lines. These assay plates are then placed in the incubator at 37° C., 5% CO2, relative humidity >90% for a few hours before addition of test compounds. Compounds are dispensed using the Tecan HPD300 or Echo based on the plate map in the appropriate wells of the 384-well plates. The cells are treated with nine-point dose response with 3-fold serial dilutions of test compounds starting at 10 uM top concentration. After addition of the test compounds, the plates are incubated at 37° C., 5% CO2, relative humidity >90% for 7 days. CellTiter-Glo (Promega Cat. No. G7573), ATP detection reagent is prepared according to manufacturer's specifications. Cell assay plates are removed from incubator and bring to room temperature (RT) by letting them sit at bench top for at least 15 min. Using the MultiDrop liquid handler or a multichannel pipette, 35 μL/well of CTG is added and the plates are then placed shakes for 5 seconds, RT.

Row | Compound | IC50 [µM]
1 | 2′-Chloro-N-(5-(6-chloro-4-methylpicolinoyl)-5,6-dihydro-4H-pyrrolo[3,4-d]thiazol-2-yl)-5′-methoxy-6-methyl-[4,4′-bipyridine]-3-carboxamide [Example 390] | 0.001 to 0.1
2 | 2′-chloro-5′-methoxy-N-(5-(8-methoxyimidazo[1,5-a]pyridine-5-carbonyl)-5,6-dihydro-4H-pyrrolo[3,4-d]thiazol-2-yl)-6-methyl-[4,4′-bipyridine]-3-carboxamide [Example 627] | 0.001 to 0.1

Same assay, conditions: Homo sapiens, DLD-1, 168 h, 7-day CellTiter-Glo, n=2, read-out: Viability IC50 (uM) DLD1 BRCA2 null

Row | Compound | IC50 [µM]
3 | COc1cnc(Cl)cc1-c1cc(C)ncc1C(=O)Nc1nc2c(s1)CN(C(=O)c1nc(C(F)F)cnc1OC)C2 [Example 468] | 0.001 to 0.1

Same assay, conditions: Homo sapiens, DLD-1, 168 h, 7-day viability, n=2, read-out: Viability IC50 (uM) DLD1 BRCA2 null

Row | Compound | IC50 [µM]
4 | COc1cnc(Cl)cc1-c1cc(C)ncc1C(=O)Nc1nc2c(s1)CN(C(=O)c1ccc(Cl)nc1OC)C2 [Example 20, 2′-chloro-N-(5-(6-chloro-2-methoxynicotinoyl)-5,6-dihydro-4H-pyrrolo[3,4-d]thiazol-2-yl)-5′-methoxy-6-methyl-[4,4′-bipyridine]-3-carboxamide] | 0.001 to 0.1
5 | COc1cnc(Cl)cc1-c1cc(C)ncc1C(=O)Nc1nc2c(s1)CN(C(=O)[C@H]1C[C@@H](OC(F)(F)F)C1)C2 [Example 25, 2′-chloro-5′-methoxy-6-methyl-N-(5-((1s,3s)-3-(trifluoromethoxy)cyclobutane-1-carbonyl)-5,6-dihydro-4H-pyrrolo[3,4-d]thiazol-2-yl)-[4,4′-bipyridine]-3-carboxamide] | 0.001 to 0.1
6 | COc1cnc(Cl)cc1-c1cc(C)ncc1C(=O)Nc1nc2c(s1)CN(C(=O)c1c3c(nn1C)CCC3)C2 [Example 54, 2′-chloro-5′-methoxy-6-methyl-N-(5-(2-methyl-2,4,5,6-tetrahydrocyclopenta[c]pyrazole-3-carbonyl)-5,6-dihydro-4H-pyrrolo[3,4-d]thiazol-2-yl)-[4,4′-bipyridine]-3-carboxamide] | 0.001 to 0.1
7 | CCc1nn(C)c(C(=O)N2Cc3nc(NC(=O)c4cnc(C)cc4-c4cc(Cl)ncc4OC)sc3C2)c1Cl [Example 56, 2′-chloro-N-(5-(4-chloro-3-ethyl-1-methyl-1H-pyrazole-5-carbonyl)-5,6-dihydro-4H-pyrrolo[3,4-d]thiazol-2-yl)-5′-methoxy-6-methyl-[4,4′-bipyridine]-3-carboxamide] | 0.001 to 0.1
8 | CCc1c(Cl)c(C(=O)N2Cc3nc(NC(=O)c4cnc(C)cc4-c4cc(Cl)ncc4OC)sc3C2)nn1C [Example 70, 2′-chloro-N-(5-(4-chloro-5-ethyl-1-methyl-1H-pyrazole-3-carbonyl)-5,6-dihydro-4H-pyrrolo[3,4-d]thiazol-2-yl)-5′-methoxy-6-methyl-[4,4′-bipyridine]-3-carboxamide] | 0.001 to 0.1

What follows are compounds tested against biotinylated Avi-POLθ[2-894] (Homo sapiens (Human), UniProt O75417) (assay: POLθ ATPase assay (ADP-Glo)). Settings: POLθ ATPase, ADP-Glo; n=2; read-out: Biochemical ATPase ADPGlo IC50.
biotinylated Avi-POLθ[2-894], sequence (O75417 2-894): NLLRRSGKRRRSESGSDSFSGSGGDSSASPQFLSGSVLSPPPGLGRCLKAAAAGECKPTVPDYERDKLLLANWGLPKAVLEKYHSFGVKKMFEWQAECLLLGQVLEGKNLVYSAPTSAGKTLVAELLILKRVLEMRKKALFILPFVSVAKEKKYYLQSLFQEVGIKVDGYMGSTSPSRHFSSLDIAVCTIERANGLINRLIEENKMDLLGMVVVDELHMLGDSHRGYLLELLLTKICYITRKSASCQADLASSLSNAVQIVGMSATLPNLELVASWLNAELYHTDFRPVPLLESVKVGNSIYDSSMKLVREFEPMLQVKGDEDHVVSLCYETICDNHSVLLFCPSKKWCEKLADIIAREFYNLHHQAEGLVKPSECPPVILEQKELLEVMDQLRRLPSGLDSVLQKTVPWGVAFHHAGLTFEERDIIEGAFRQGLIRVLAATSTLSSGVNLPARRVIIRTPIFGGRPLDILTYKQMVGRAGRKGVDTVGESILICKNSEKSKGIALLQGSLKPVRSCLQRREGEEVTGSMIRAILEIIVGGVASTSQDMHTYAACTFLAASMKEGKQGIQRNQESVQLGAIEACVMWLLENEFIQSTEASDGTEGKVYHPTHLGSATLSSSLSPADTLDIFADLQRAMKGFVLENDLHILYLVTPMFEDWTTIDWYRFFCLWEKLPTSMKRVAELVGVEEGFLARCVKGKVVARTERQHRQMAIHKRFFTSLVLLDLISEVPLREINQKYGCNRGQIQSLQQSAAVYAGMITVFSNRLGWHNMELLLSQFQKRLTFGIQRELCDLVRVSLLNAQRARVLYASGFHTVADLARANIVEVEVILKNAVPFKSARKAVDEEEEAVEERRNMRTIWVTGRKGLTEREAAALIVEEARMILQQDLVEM

Row | Compound | IC50 [nM]
9 | 2′-Chloro-N-(5-(6-chloro-4-methylpicolinoyl)-5,6-dihydro-4H-pyrrolo[3,4-d]thiazol-2-yl)-5′-methoxy-6-methyl-[4,4′-bipyridine]-3-carboxamide [Example 390] | 1 to 15
10 | COc1cnc(Cl)cc1-c1cc(C)ncc1C(=O)Nc1nc2c(s1)CN(C(=O)c1nc(C(F)F)cnc1OC)C2 [Example 468] | 1 to 15
11 | COc1cnc(Cl)cc1-c1cc(C)ncc1C(=O)Nc1nc2c(s1)CN(C(=O)c1cnc(C(F)(F)F)nc1)C2 [Example 483] | 1 to 15
12 | COc1cnc(Cl)cc1-c1cc(C)ncc1C(=O)Nc1nc2c(s1)CN(C(=O)c1cccnc1OC(F)F)C2 [Example 525] | 1 to 15
13 | COc1cncc(C(=O)N2Cc3nc(NC(=O)c4cnc(C)cc4-c4cc(Cl)ncc4OC)sc3C2)n1 [Example 528] | 1 to 15
14 | COc1cnc(Cl)cc1-c1cc(C)ncc1C(=O)Nc1nc2c(s1)C[C@@H](C(=O)N[C@H]1C[C@H](O)C1)CC2 [Example 669] | 150 to 900
15 | COc1cnc(Cl)cc1-c1cc(C)ncc1C(=O)Nc1nc2c(s1)C[C@@H](C(=O)N1CC[C@@H](O)C1)CC2 [Example 681] | 150 to 900
16 | COc1cnc(Cl)cc1-c1cc(C)ncc1C(=O)Nc1nc2c(s1)CN(C(=O)[C@@H]1CC[C@](O)(C(F)(F)F)C1)C2 [Example 734, 2′-chloro-N-(5-((1R,3R)-3-hydroxy-3-(trifluoromethyl)cyclopentane-1-carbonyl)-5,6-dihydro-4H-pyrrolo[3,4-d]thiazol-2-yl)-5′-methoxy-6-methyl-[4,4′-bipyridine]-3-carboxamide] | 1 to 15
17 | COc1cnc(Cl)cc1-c1cc(C)ncc1C(=O)Nc1nc2c(s1)CN(C(=O)[C@H]1CC[C@](O)(C(F)(F)F)C1)C2 [Example 736, 2′-chloro-N-(S-((1S,3R)-3-hydroxy-3-(trifluoromethyl)cyclopentane-1-carbonyl)-5,6-dihydro-4H-pyrrolo[3,4-d]thiazol-2-yl)-5′-methoxy-6-methyl-[4,4′-bipyridine]-3-carboxamide] | 1 to 15
18 | COc1cnc(Cl)cc1-c1cc(C)ncc1C(=O)Nc1nc2c(s1)CN(C(=O)[C@@H]1CCC[C@](O)(C(F)(F)F)C1)C2 [Example 761] | 1 to 15
19 | COc1nc(C(=O)N2Cc3nc(NC(=O)c4cnc(C)cc4-c4cc(Cl)cnc4O)sc3C2)c(C)cc1C(F)(F)F [Example 1043, 5-chloro-2-hydroxy-N-(5-(6-methoxy-3-methyl-5-(trifluoromethyl)picolinoyl)-5,6-dihydro-4H-pyrrolo[3,4-d]thiazol-2-yl)-6′-methyl-[3,4′-bipyridine]-3′-carboxamide] | ≥ 900
20 | COc1nc(C(F)(F)F)ccc1C(=O)N1Cc2nc(NC(=O)c3cnc(C)cc3-c3cc(Cl)c[nH]c3=O)sc2C1 [Example 1045, 5-chloro-N-(5-(2-methoxy-6-(trifluoromethyl)nicotinoyl)-5,6-dihydro-4H-pyrrolo[3,4-d]thiazol-2-yl)-6′-methyl-2-oxo-1,2-dihydro-[3,4′-bipyridine]-3′-carboxamide] | ≥ 900

Same assay, conditions: n=2; read-out: Biochemical ATPase ADPGlo IC50

Row | Compound | IC50 [nM]
21 | COc1cnc(Cl)cc1-c1cc(C)ncc1C(=O)Nc1nc2c(s1)CN(C(=O)c1ccc(Cl)nc1OC)C2 [Example 20, 2′-chloro-N-(5-(6-chloro-2-methoxynicotinoyl)-5,6-dihydro-4H-pyrrolo[3,4-d]thiazol-2-yl)-5′-methoxy-6-methyl-[4,4′-bipyridine]-3-carboxamide] | 1 to 15
22 | COc1cnc(Cl)cc1-c1cc(C)ncc1C(=O)Nc1nc2c(s1)CN(C(=O)[C@H]1C[C@@H](OC(F)(F)F)C1)C2 [Example 25, 2′-chloro-5′-methoxy-6-methyl-N-(5-((1s,3s)-3-(trifluoromethoxy)cyclobutane-1-carbonyl)-5,6-dihydro-4H-pyrrolo[3,4-d]thiazol-2-yl)-[4,4′-bipyridine]-3-carboxamide] | 1 to 15
23 | COc1cnc(Cl)cc1-c1cc(C)ncc1C(=O)Nc1nc2c(s1)CN(C(=O)c1c3c(nn1C)CCC3)C2 [Example 54, 2′-chloro-5′-methoxy-6-methyl-N-(5-(2-methyl-2,4,5,6-tetrahydrocyclopenta[c]pyrazole-3-carbonyl)-5,6-dihydro-4H-pyrrolo[3,4-d]thiazol-2-yl)-[4,4′-bipyridine]-3-carboxamide] | 1 to 15
24 | CCc1nn(C)c(C(=O)N2Cc3nc(NC(=O)c4cnc(C)cc4-c4cc(Cl)ncc4OC)sc3C2)c1Cl [Example 56, 2′-chloro-N-(5-(4-chloro-3-ethyl-1-methyl-1H-pyrazole-5-carbonyl)-5,6-dihydro-4H-pyrrolo[3,4-d]thiazol-2-yl)-5′-methoxy-6-methyl-[4,4′-bipyridine]-3-carboxamide] | 1 to 15
25 | CCc1c(Cl)c(C(=O)N2Cc3nc(NC(=O)c4cnc(C)cc4-c4cc(Cl)ncc4OC)sc3C2)nn1C [Example 70, 2′-chloro-N-(5-(4-chloro-5-ethyl-1-methyl-1H-pyrazole-3-carbonyl)-5,6-dihydro-4H-pyrrolo[3,4-d]thiazol-2-yl)-5′-methoxy-6-methyl-[4,4′-bipyridine]-3-carboxamide] | 1 to 15
26 | COc1ccc(C#N)cc1-c1cc(C)ncc1C(=O)Nc1nc2c(s1)CN(S(=O)(=O)NC1CCCC1)C2 [Example 230] | 1 to 15
27 | COc1cnc(Cl)cc1-c1cc(C)ncc1C(=O)Nc1nc2c(s1)CN(S(=O)(=O)C1CC1)C2 [Example 234] | 1 to 15
28 | COc1ccc(C#N)cc1-c1cc(C)ncc1C(=O)Nc1nc2c(s1)CN(C(=O)[C@@H]1CC[C@H]1OC)C2 [Example 235] | 1 to 15
29 | COc1ccc(C#N)cc1-c1cc(C)ncc1C(=O)Nc1nc2c(s1)CN(C(=O)c1ccccn1)CC2 [Example 247] | 150 to 900
30 | COc1ccccc1-c1cc(C)ncc1C(=O)Nc1nc2c(s1)CN(C(=O)c1nc3ccccn3n1)C2 [Example 252] | 50 to 150
31 | COc1ccccc1-c1cc(C)ncc1C(=O)Nc1nc2c(s1)CN(C(=O)c1cccc3ccnn13)C2 [Example 253] | 15 to 50
32 | COc1ccccc1-c1cc(C)ncc1C(=O)Nc1nc2c(s1)CN(C(=O)C1COC1)C2 [Example 256] | 150 to 900
33 | COc1ccc(C#N)cc1-c1cc(C)ncc1C(=O)Nc1nc2c(s1)CN(C(=O)[C@@H]1CCCO1)C2 [Example 261] | 15 to 50
34 | COc1ccccc1-c1cc(C)ncc1C(=O)Nc1nc2c(s1)CN(S(=O)(=O)NC(C)C)C2 [Example 280] | 50 to 150
35 | COc1ccccc1-c1cc(C)ncc1C(=O)Nc1nc2c(s1)CN(C(=O)c1ccccn1)C2 [Example 323] | 150 to 900
36 | COc1ccccc1-c1cc(C)ncc1C(=O)Nc1nc2c(s1)CN(C(=O)C1CCCCO1)C2 (centres unmarked) [Example 324, 4-(2-methoxyphenyl)~6-methyl-N-(5-{3-oxabicyclo[3.1.0]hexane-6-carbonyl}-4H,5H,6H-pyrrolo[3,4-d][1,3]thiazol-2-yl)pyridine-3-carboxamide] | 150 to 900
37 | COc1ccccc1-c1cc(C)ncc1C(=O)Nc1nc2c(s1)CC(c1ccc(Cl)cc1)=CC2 [Example 328] | 150 to 900
38 | COc1ccccc1-c1cc(C)ncc1C(=O)Nc1nc2c(s1)CN(C(=O)OC(C)(C)C)CC2 [Example 335] | 150 to 900
39 | COc1ccccc1-c1cc(C)ncc1C(=O)Nc1nc2c(s1)CN(C(=O)c1cccnn1)C2 [Example 342, 4-(2-methoxyphenyl)~6-methyl-N-[5-(1-methyl-6-oxo-1,6-dihydropyridine-3-carbonyl)-4H,5H,6H-pyrrolo[3,4-d][1,3]thiazol-2-yl]pyridine-3-carboxamide] | 150 to 900
40 | COc1ccccc1-c1cc(C)ncc1C(=O)Nc1nc2c(s1)CN(C(=O)C1CCNC1=O)C2 (centres unmarked) [Example 345] | 150 to 900
41 | COc1ccccc1-c1cc(C)ncc1C(=O)Nc1nc2c(s1)CN(C1CC1)C2=O [Example 352, N-(5-cyclopropyl-4-oxo-5,6-dihydro-4H-pyrrolo[3,4-d]thiazol-2-yl)-4-(2-methoxyphenyl)-6-methylnicotinamide] | ≥ 900
42 | COc1ccccc1-c1cc(C)ncc1C(=O)Nc1nc2c(s1)CC(=O)CC2 [Example 373] | ≥ 900
43 | N-(5-(1H-pyrazole-4-carbonyl)-5,6- dihydro-4H-pyrrolo[3,4-d]thiazol-2-yl)- 2′-chloro-5′-methoxy-6-methyl-[4,4′- bipyridine]-3-carboxamide [Example 88] | 15 to 50
44 | N-(5-(1H-pyrazole-5-carbonyl)-5,6- dihydro-4H-pyrrolo[3,4-d]thiazol-2-yl)- 2′-chloro-5′-methoxy-6-methyl-[4,4′- bipyridine]-3-carboxamide [Example 86] | 1 to 15

From US20250230171A1 (MOMA Therapeutics, Inc., priority 2023, published 2025)
